Measured values taken from patent publication US12290496B2, “Compounds for use in preventing or treating athlete overtraining” (TDELTAS LIMITED, priority 2018, dated 2025).
Values belong to the compound of their own block, whether it stands above or below them.

Key:
[1] = 30-minute simulated cycling time trial (TT30min) performance (FIG. 2); type: in vivo, human
Protocol: (§1) A randomized placebo-controlled (ketone ester versus placebo) intervention study was performed. The study involved a pretest and a posttest with a 3-week training overload period in between (Table 1A). During this 3-week period, subjects received either ketone ester or an isocaloric placebo (long chain triglyceride) after each training session and 30 minutes before sleep. The conditions were blinded to both the subjects and the investigators until completion of all the experiments.
Three weeks prior to the start of the study, subjects underwent a sport medical screening by a certified sports physician. One week later, the subjects participated in three familiarization sessions (Table 1B) to get familiar with the experimental procedures. […] Respiratory gas exchange was measured continuously during the test (Cortex Metalyzer II, Leipzig, Germany), and the highest oxygen uptake measured over a 30-s period defined as the maximal oxygen uptake (VO2max). […]
For the first experimental session, after a 10-min warming up (5 min at 100 W, plus 5 min at 150 W), the subjects performed a TT30min. […] Immediately after completion of the TT, subjects (1) scored the rate of perceived exertion on a 15-point Borg scale and completed a gastrointestinal symptom questionnaire. […]

[2] = system: noradrenaline; experiment: Urinary total nocturnal noradrenaline excretion (FIG. 9b); type: in vivo, human; conditions: before and during 3-week overreaching/overtraining period; consistently elevated in placebo
Protocol: as §1
(§2) Immediately following each training session and 30 min before sleep, subjects received a recovery drink (6D Recovery Shake, Medix, Oudenaarde, Belgium) containing 1 g carbohydrates per kg body weight, plus 0.35 g whey protein isolate per kg body weight. Additionally, subjects received 0.35 g per kg body weight of a ketone ester drink or an isocaloric placebo (PL; long chain triglycerides) as a separate drink to be ingested together with the carbohydrate/protein recovery drink. The ketone ester supplement (ΔG®) delivered pure D-β-hydroxybutyrate-R 1,3 butanediol monoester. These nutritional supplements have been extensively tested before (see for instance Cox et al; Cell Metab 24: 256-268, 2016).
Total nocturnal urine (10 pm to 8 am) was collected during the night before each experimental session in flasks prepared with 10 ml hydrochloric acid. […]

[3] = Circulating (R)-3-hydroxybutyrate levels and gut uptake after consumption of esters; type: in vivo
[4] = Peak heart rate during 90 second all-out isokinetic sprint (FIG. 4); type: in vivo, human; conditions: 90 second all-out isokinetic sprints, 3-week training overload period
Protocol: as §1, §2
FIG. 4A gives the absolute values, and FIG. 4B gives the decrease in heart rate (Δ) from the pre-test values. […]

[5] = Submaximal heart rate during first 5 minutes of 30-min time trial (FIG. 5); type: in vivo, human; conditions: 3-week training overload period
Protocol: as §1
For the first experimental session, after a 10-min warming up (5 min at 100 W, plus 5 min at 150 W), the subjects performed a TT30min. During the first 5 minutes (t0-t5), the workload was set equal to the mean power output achieved during the TT30min in the last familiarization session. From t5 to t25, the subjects adjusted the workload at 5-min intervals according to their subjective perception of fatigue. From t25 to t30, 1-min adjustments were allowed so as to be able to establish full exhaustion by the end of the TT. Immediately after completion of the TT, subjects (1) scored the rate of perceived exertion on a 15-point Borg scale and completed a gastrointestinal symptom questionnaire. Following 15 min of active recovery (cycling @ 50 W), subjects performed a W30s. One day later, the subjects returned to the laboratory for the second experimental session. During this session a VO2max test was performed. […]

[6] = acute ingestion, elite cyclists; cited from earlier work
[7] = Blood ketone (β-hydroxybutyrate) levels during 3-week training overload study (FIG. 1); type: in vivo, human; conditions: 30 minutes following ingestion; days 6, 13 and 20
Protocol: as §1
as §2, with “The ketone ester supplement (ΔG®) delivered pure D-β-hydroxybutyrate-R 1,3 butanediol monoester. These nutritional supplements have been extensively tested before (see for instance Cox et al; Cell Metab 24: 256-268, 2016).” left out
Furthermore, during TT30min small capillary blood samples (5 μl) were collected at 5-min time intervals via a small puncture in the earlobe. These microsamples were immediately analyzed for blood lactate concentration (Lactate Pro®, Arkray, Kyoto, Japan), blood glucose and βHB levels (GlucoMen Lx plus-meter with Lx glucose or Lx β-ketone strips, Menarini Diagnostics, Firenze, Italy). […]

[8] = 30-minute time trial after 2 h submaximal constant-load exercise bout, day 18 (FIG. 3); type: in vivo, human
Protocol: as §1, §2
FIG. 3 illustrates the 30 minute time trial performance results at the end of a 120 minute constant-load endurance training session at day 18 of the training period. […]

[9] = DXA scanning before and after 3-week training period (FIG. 6); type: in vivo, human; conditions: 3-week training overload period
Protocol: as §1, §2

[10] = Food (energy) intake during 3-week training period (FIG. 7); type: in vivo, human; conditions: placebo energy intake stable
Protocol: as §1, §2

[11] = Training volume / work per week and per session (FIG. 10, 11); type: in vivo, human
Protocol: Following the pre-test, participants were enrolled in a 3-week supervised and fully-controlled exercise training program. Each week of the training program consisted of six training days with an interval training in the morning and an endurance training in the evening, for a total of twelve training sessions per week (Table 2).
The number of maximal sprints in the HIIT sessions increased from 4 in week 1, to 5 in week 2 and 6 in the final week. Endurance sessions were performed in the evening and consisted of 150 min of cycling at 65% VO2max. During the 3-week training period the subjects abstained from any exercise other than the exercise prescribed by the study protocol.
as §2

[12] = system: leptin; experiment: Leptin levels in fasted plasma samples (FIG. 8); type: in vivo, human
Protocol: as §1, §2
Blood samples (2×5 ml) were taken from an arm vein by use of the Venoject® system into BD Vacutainer® tubes. […]

circulating levels of (R)-3-hydroxybutyrate in the blood ([3]; in vivo): high circulating levels
level of uptake in the gut ([3]; in vivo): surprisingly high level of uptake
blood β-hydroxybutyrate levels versus placebo drink [7]: significantly higher
Compound: C[C@@H](O)CCOC(=O)C[C@@H](C)O [ketone ester, (R)-3-hydroxybutyl (R)-3-hydroxybutyrate]
increase in power output from pre-test ([1]; following 1 week of tapering after 3-week training overload period, not increased in placebo group): ~8%
average power during 30 minute time trial versus placebo ([1]; post-test and follow-up 1): significantly higher
urinary total nocturnal noradrenaline excretion [2]: stable at baseline levels
decline in maximum (peak) heart rate from pre-test, versus placebo [4]: significantly less
decline in submaximal heart rate vs. pre-test, versus placebo [5]: significantly less
endurance performance [6]: improve endurance performance
increase in mean power output compared with placebo drink ([8]; day 18 of training period): ~15%
average power in 30 minute time trial versus placebo group ([8]; end of 120 minute constant-load endurance session, day 18): significantly higher
bone mineral content in post-test compared to placebo [9]: increased bone mineral content
changes in body fat compared with placebo [9]: did not alter
changes in lean body mass compared with placebo [9]: did not alter
daily energy intake from week 1 to week 3 [10]: spontaneously increased
workload effected during each single training session versus placebo ([11]; from day 20): higher
training load versus placebo ([11]; week 3): definitely higher
training load versus placebo ([11]; weeks 1 and 2): no difference
leptin levels compared to placebo ([12]; all timepoints after the pretest): higher at all timepoints
leptin levels from pretest to posttest ([12]; significantly dropped in placebo group): constant

circulating levels of (R)-3-hydroxybutyrate in the blood ([3]; upon consumption of a drink): high circulating levels
level of uptake in the gut ([3]; upon consumption of a drink): surprisingly high level of uptake
Compound: (R)-3-hydroxybutyrate-glycerol partial ester
